Test results as given in PubChem BioAssay AID248 (DTP/NCI, 2004).
Where “and” joins values, the source holds several entries; their conditions need not be identical. Equal entries are not always repeated. Inconclusive results and toxic doses are left out. No stated cut-off is given here; in the data, active means T/C of 150% or more; inactive means T/C below 125%.

System: L1210 leukemia ip in BDF1 mice, survival T/C
Test: NCI In Vivo Anticancer Drug Screen. Data for tumor model L1210 Leukemia (intraperitoneal) in B6D2F1 (BDF1) mice
Settings: endpoint: mean survival time, higher = longer survival
Outline: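 Ratio derived from survival: compound-dosed mice over vehicle-dosed mice, all bearing a transplantable tumor.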

[1] = dose: 100.0 mg/kg/injection, schedule: Q01DX001 (ip), vehicle: Klucel (hydroxypropylcellulose) (HPC)
[2] = dose: 200.0 mg/kg/injection, schedule: Q01DX001 (ip), vehicle: Klucel (hydroxypropylcellulose) (HPC)
[3] = dose: 400.0 mg/kg/injection, schedule: Q01DX001 (ip), vehicle: Klucel (hydroxypropylcellulose) (HPC)
[4] = dose: 100.0 mg/kg/injection, schedule: Q01DX009 (ip), vehicle: saline with Tween-80
[5] = dose: 100.0 mg/kg/injection, schedule: Q04DX003 (ip), vehicle: saline with Tween-80
[6] = dose: 200.0 mg/kg/injection, schedule: Q04DX003 (ip), vehicle: saline with Tween-80
[7] = dose: 400.0 mg/kg/injection, schedule: Q04DX003 (ip), vehicle: saline with Tween-80
[8] = dose: 100.0 mg/kg/injection, schedule: Q01DX001 (ip), vehicle: saline
[9] = dose: 100.0 mg/kg/injection, schedule: Q04DX003 (ip), vehicle: saline
[10] = dose: 200.0 mg/kg/injection, schedule: Q01DX001 (ip), vehicle: saline
[11] = dose: 200.0 mg/kg/injection, schedule: Q04DX003 (ip), vehicle: saline
[12] = dose: 400.0 mg/kg/injection, schedule: Q04DX003 (ip), vehicle: saline

Measured: T/C

O=C(Nc1cc(NC(=O)Nc2cccc(C3=NCCN3)c2)cc(C(=O)Nc2ccccc2)c1)Nc1cccc(C2=NCCN2)c1
inactive: dose: 15.0 mg/kg/injection, schedule: Q01DX Z (ip), vehicle: carboxymethylcellulose (CMC) 94 % of control | dose: 30.0 mg/kg/injection, schedule: Q01DX Z (ip), vehicle: carboxymethylcellulose (CMC) 103 % of control | dose: 60.0 mg/kg/injection, schedule: Q01DX Z (ip), vehicle: carboxymethylcellulose (CMC) 97 % of control | dose: 120.0 mg/kg/injection, schedule: Q01DX Z (ip), vehicle: carboxymethylcellulose (CMC) 107 % of control and 91 % of control | dose: 240.0 mg/kg/injection, schedule: Q01DX Z (ip), vehicle: carboxymethylcellulose (CMC) 104 % of control

O=C1c2ccccc2C(=O)N1CCS(=O)(=O)Cl
inactive: dose: 25.0 mg/kg/injection, schedule: Q01DX001 (ip), vehicle: carboxymethylcellulose (CMC) 104 % of control | dose: 25.0 mg/kg/injection, schedule: Q01DX009 (ip), vehicle: carboxymethylcellulose (CMC) 92 % of control and 96 % of control | dose: 50.0 mg/kg/injection, schedule: Q01DX001 (ip), vehicle: carboxymethylcellulose (CMC) 100 % of control | dose: 50.0 mg/kg/injection, schedule: Q01DX009 (ip), vehicle: carboxymethylcellulose (CMC) 92 % of control and 102 % of control | dose: 50.0 mg/kg/injection, schedule: Q04DX003 (ip), vehicle: carboxymethylcellulose (CMC) 97 % of control and 98 % of control | dose: 100.0 mg/kg/injection, schedule: Q01DX001 (ip), vehicle: carboxymethylcellulose (CMC) 92 % of control and 99 % of control | dose: 100.0 mg/kg/injection, schedule: Q01DX009 (ip), vehicle: carboxymethylcellulose (CMC) 92 % of control and 95 % of control and 89 % of control | dose: 100.0 mg/kg/injection, schedule: Q04DX002 (ip), vehicle: carboxymethylcellulose (CMC) 93 % of control and 97 % of control | dose: 100.0 mg/kg/injection, schedule: Q04DX003 (ip), vehicle: carboxymethylcellulose (CMC) 100 % of control and 113 % of control | dose: 200.0 mg/kg/injection, schedule: Q01DX001 (ip), vehicle: carboxymethylcellulose (CMC) 97 % of control | dose: 200.0 mg/kg/injection, schedule: Q04DX002 (ip), vehicle: carboxymethylcellulose (CMC) 97 % of control | dose: 200.0 mg/kg/injection, schedule: Q04DX003 (ip), vehicle: carboxymethylcellulose (CMC) 100 % of control and 102 % of control | dose: 400.0 mg/kg/injection, schedule: Q01DX001 (ip), vehicle: carboxymethylcellulose (CMC) 92 % of control | dose: 400.0 mg/kg/injection, schedule: Q01DX009 (ip), vehicle: carboxymethylcellulose (CMC) 86 % of control | dose: 400.0 mg/kg/injection, schedule: Q04DX002 (ip), vehicle: carboxymethylcellulose (CMC) 97 % of control and 100 % of control

CC1CCC2(CC1)CCN(CCCN(C)C)CC2
inactive: dose: 15.0 mg/kg/injection, schedule: Q01DX015 (ip), vehicle: saline 102 % of control | dose: 30.0 mg/kg/injection, schedule: Q01DX015 (ip), vehicle: saline 102 % of control | dose: 60.0 mg/kg/injection, schedule: Q01DX015 (ip), vehicle: saline 100 % of control | dose: 120.0 mg/kg/injection, schedule: Q01DX015 (ip), vehicle: saline 104 % of control | dose: 200.0 mg/kg/injection, schedule: Q01DX015 (ip), vehicle: saline 107 % of control

Cc1ccc(S(=O)(=O)c2ccc(C)c([N+](=O)[O-])c2)cc1[N+](=O)[O-]
inactive: [1] 104 % of control | [2] 118 % of control | [3] 96 % of control

O=C(Nc1ccc2c(c1)OCO2)O/N=C\c1ccccc1
inactive: [4] 89 % of control | [5] 103 % of control | dose: 200.0 mg/kg/injection, schedule: Q01DX009 (ip), vehicle: saline with Tween-80 91 % of control | [6] 97 % of control | dose: 400.0 mg/kg/injection, schedule: Q01DX009 (ip), vehicle: saline with Tween-80 91 % of control | [7] 89 % of control

CN(C)C(=O)c1ccc(O)cc1
inactive: dose: 100.0 mg/kg/injection, schedule: Q04DX003 (ip), vehicle: Klucel (hydroxypropylcellulose) (HPC) 104 % of control | dose: 200.0 mg/kg/injection, schedule: Q04DX003 (ip), vehicle: Klucel (hydroxypropylcellulose) (HPC) 92 % of control | dose: 400.0 mg/kg/injection, schedule: Q04DX003 (ip), vehicle: Klucel (hydroxypropylcellulose) (HPC) 97 % of control

CC(C)NCC(O)c1cccc(O)c1 (stereo not given)
inactive: dose: 50.0 mg/kg/injection, schedule: Q04DX003 (ip), vehicle: saline 101 % of control | [8] 98 % of control | [9] 101 % of control | [10] 97 % of control | [11] 104 % of control

CCSc1ncc2cnccn12
inactive: dose: 25.0 mg/kg/injection, schedule: Q01DX009 (ip), vehicle: water 91 % of control | dose: 50.0 mg/kg/injection, schedule: Q01DX009 (ip), vehicle: water 100 % of control | dose: 100.0 mg/kg/injection, schedule: Q04DX003 (ip), vehicle: water 91 % of control

CCCCCC(CN(C)C)C(=O)/C=C/c1c(Cl)cccc1Cl (stereo not given)
inactive: dose: 25.0 mg/kg/injection, schedule: Q01DX009 (ip), vehicle: Klucel (hydroxypropylcellulose) (HPC) 106 % of control

CC1=C/C(=N/N(C)C)CC(C)C1 (stereo not given)
inactive: dose: 12.5 mg/kg/injection, schedule: Q01DX009 (ip), vehicle: saline 96 % of control | dose: 25.0 mg/kg/injection, schedule: Q01DX009 (ip), vehicle: saline 102 % of control | dose: 50.0 mg/kg/injection, schedule: Q01DX009 (ip), vehicle: saline 95 % of control | [9] 100 % of control | [11] 109 % of control | [12] 112 % of control

O=CNc1nc(Cl)c2ncn(C3OC(COCc4ccccc4)C(OCc4ccccc4)C3OCc3ccccc3)c2n1 (stereo not given)
inactive: dose: 12.5 mg/kg/injection, schedule: Q01DX005 (ip), vehicle: saline 104 % of control | dose: 25.0 mg/kg/injection, schedule: Q01DX005 (ip), vehicle: saline 98 % of control | dose: 50.0 mg/kg/injection, schedule: Q01DX005 (ip), vehicle: saline 102 % of control | dose: 100.0 mg/kg/injection, schedule: Q01DX005 (ip), vehicle: saline 113 % of control | dose: 200.0 mg/kg/injection, schedule: Q01DX005 (ip), vehicle: saline 106 % of control

C[N+](C)(C)CCOC(=O)c1ccc(CBr)cc1
inactive: dose: 25.0 mg/kg/injection, schedule: Q01DX009 (ip), vehicle: saline with Tween-80 104 % of control | dose: 50.0 mg/kg/injection, schedule: Q01DX009 (ip), vehicle: saline with Tween-80 108 % of control | dose: 50.0 mg/kg/injection, schedule: Q04DX002 (ip), vehicle: saline 90 % of control | [4] 86 % of control | dose: 100.0 mg/kg/injection, schedule: Q01DX009 (ip), vehicle: saline 103 % of control | dose: 100.0 mg/kg/injection, schedule: Q04DX002 (ip), vehicle: saline 98 % of control

O=C(CCl)Nc1cc(Cl)ccc1N1CCCC1
inactive: dose: 12.5 mg/kg/injection, schedule: Q01DX009 (ip), vehicle: acetone 100 % of control | dose: 25.0 mg/kg/injection, schedule: Q01DX009 (ip), vehicle: acetone 90 % of control | dose: 50.0 mg/kg/injection, schedule: Q01DX009 (ip), vehicle: acetone 90 % of control

N#CCC1(O)c2ccccc2-c2ccccc21
inactive: dose: 50.0 mg/kg/injection, schedule: Q01DX001 (ip), vehicle: saline 98 % of control | [8] 98 % of control | [10] 102 % of control | dose: 400.0 mg/kg/injection, schedule: Q01DX001 (ip), vehicle: saline 96 % of control

CC(=O)NCCN
inactive: [9] 92 % of control | [12] 108 % of control

C/C(CCl)=N\Nc1ccc([N+](=O)[O-])cc1[N+](=O)[O-]
inactive: dose: 100.0 mg/kg/injection, schedule: Q01DX001 (ip), vehicle: saline with Tween-80 101 % of control | dose: 200.0 mg/kg/injection, schedule: Q01DX001 (ip), vehicle: saline with Tween-80 98 % of control

COc1ccccc1-n1c(O)c(N=Nc2ccc(Br)cc2)c(=O)n(-c2ccccc2)c1=S
inactive: [1] 102 % of control | [2] 121 % of control | [3] 102 % of control

C/C(=N/Nc1ccc([N+](=O)[O-])cc1[N+](=O)[O-])c1ccccc1
inactive: [5] 88 % of control | [6] 93 % of control | [7] 90 % of control
